Experimental data as given in PubChem BioAssay AID2060609 (Molecular Pharmacology Branch, DTP, NCI, 2025).

Test system: 855422-203-R-J1-PDC complex spheroids, viability
Assay: Anticancer human tumor 855422-203-R-J1-PDC patient-derived bladder carcinoma cell line growth inhibition [CLK]
Details: for IC50: curve of first compound; for viability, T/C: stronger effect = lower value
Outline: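 Patient-derived tumor cells grown as complex spheroids with HUVEC endothelial cells and mesenchymal stem cells, treated with drug combinations. Concentrations descend in half-log steps from near clinical Cmax, or from 10 microM if Cmax unknown.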

[1] = second compound 0.0316 µM, first compound 0.0316 µM
[2] = second compound 0.0316 µM, first compound 0.1 µM
[3] = second compound 0.0316 µM, first compound 0.316 µM
[4] = second compound 0.0316 µM, first compound 1 µM
[5] = second compound 0.0316 µM, first compound 3.16 µM
[6] = second compound 0.0316 µM, first compound 10 µM
[7] = second compound 0.1 µM, first compound 0.0316 µM
[8] = second compound 0.1 µM, first compound 0.1 µM
[9] = second compound 0.1 µM, first compound 0.316 µM
[10] = second compound 0.1 µM, first compound 1 µM
[11] = second compound 0.1 µM, first compound 3.16 µM
[12] = second compound 0.1 µM, first compound 10 µM
[13] = second compound 0.316 µM, first compound 0.0316 µM
[14] = second compound 0.316 µM, first compound 0.1 µM
[15] = second compound 0.316 µM, first compound 0.316 µM
[16] = second compound 0.316 µM, first compound 1 µM
[17] = second compound 0.316 µM, first compound 3.16 µM
[18] = second compound 0.316 µM, first compound 10 µM
[19] = second compound 1 µM, first compound 0.0316 µM
[20] = second compound 1 µM, first compound 0.1 µM
[21] = second compound 1 µM, first compound 0.316 µM
[22] = second compound 1 µM, first compound 1 µM
[23] = second compound 1 µM, first compound 3.16 µM
[24] = second compound 1 µM, first compound 10 µM
[25] = second compound 3.16 µM, first compound 0.0316 µM
[26] = second compound 3.16 µM, first compound 0.1 µM
[27] = second compound 3.16 µM, first compound 0.316 µM
[28] = second compound 3.16 µM, first compound 1 µM
[29] = second compound 3.16 µM, first compound 3.16 µM
[30] = second compound 3.16 µM, first compound 10 µM
[31] = second compound 10 µM, first compound 0.0316 µM
[32] = second compound 10 µM, first compound 0.1 µM
[33] = second compound 10 µM, first compound 0.316 µM
[34] = second compound 10 µM, first compound 1 µM
[35] = second compound 10 µM, first compound 3.16 µM
[36] = second compound 10 µM, first compound 10 µM
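Note: spheroids exposed to drugs for seven days before readout.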
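Throughout, for viability, T/C: 100% = DMSO vehicle control wells.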

Question: Which results are given for CC1(C)CCC(CN2CCN(c3ccc(C(=O)NS(=O)(=O)c4ccc(NCC5CCOCC5)c([N+](=O)[O-])c4)c(Oc4cnc5[nH]ccc5c4)c3)CC2)=C(c2ccc(Cl)cc2)C1 + CNC(=O)c1ccc(Nc2nc(OC3CCCC3)c3c(-c4ccc5nc(C)oc5c4)c[nH]c3n2)c(OC)c1?
Answer: IC50 (second compound 0.0316 µM): 6.59 µM; IC50 (second compound 0.1 µM): 4.22 µM; IC50 (second compound 0.316 µM): < 0.0316 µM; IC50 (second compound 1 µM): < 0.0316 µM; IC50 (second compound 3.16 µM): < 0.0316 µM; IC50 (second compound 10 µM): < 0.0316 µM; viability, T/C [1]: 128%; viability, T/C [2]: 118%; viability, T/C [3]: 116%; viability, T/C [4]: 125%; viability, T/C [5]: 173%; viability, T/C [6]: 3.47%; viability, T/C [7]: 54.1%; viability, T/C [8]: 68.9%; viability, T/C [9]: 62.4%; viability, T/C [10]: 75.5%; viability, T/C [11]: 69.2%; viability, T/C [12]: 2.06%; viability, T/C [13]: 20.6%; viability, T/C [14]: 23.1%; viability, T/C [15]: 28.9%; viability, T/C [16]: 20.9%; viability, T/C [17]: 20.5%; viability, T/C [18]: 3.1%; viability, T/C [19]: 21.3%; viability, T/C [20]: 18.3%; viability, T/C [21]: 19.3%; viability, T/C [22]: 27.2%; viability, T/C [23]: 23.3%; viability, T/C [24]: 3.87%; viability, T/C [25]: 22.6%; viability, T/C [26]: 24.9%; viability, T/C [27]: 19.5%; viability, T/C [28]: 22.9%; viability, T/C [29]: 19.1%; viability, T/C [30]: 6.53%; viability, T/C [31]: 17.3%; viability, T/C [32]: 19.6%; viability, T/C [33]: 19.3%; viability, T/C [34]: 19.4%; viability, T/C [35]: 19.3%; viability, T/C [36]: 4.56%

Question: CC1COCCN1c1cc(C2(S(C)(=N)=O)CC2)nc(-c2ccnc3[nH]ccc23)n1 (centres undefined) + CNC(=O)c1ccc(Nc2nc(OC3CCCC3)c3c(-c4ccc5nc(C)oc5c4)c[nH]c3n2)c(OC)c1 was tested. Which IC50 (second compound 0.0316 µM) did it give?
Answer: 2.34 µM

Question: What about the IC50 (second compound 0.1 µM) of the same compound?
Answer: 1.07 µM

Question: What about the IC50 (second compound 0.316 µM) of the same compound?
Answer: < 0.0316 µM

Question: What about the IC50 (second compound 1 µM) of the same compound?
Answer: < 0.0316 µM

Question: And the IC50 (second compound 3.16 µM)?
Answer: < 0.0316 µM

Question: What about the IC50 (second compound 10 µM) of the same compound?
Answer: < 0.0316 µM

Question: What about the viability, T/C [1] of the same compound?
Answer: 101%

Question: What about the viability, T/C [2] of the same compound?
Answer: 95.5%

Question: And the viability, T/C [3]?
Answer: 103%

Question: What about the viability, T/C [4] of the same compound?
Answer: 111%

Question: And the viability, T/C [5]?
Answer: 31.3%

Question: What about the viability, T/C [6] of the same compound?
Answer: 11.1%

Question: And the viability, T/C [7]?
Answer: 61.3%

Question: What about the viability, T/C [8] of the same compound?
Answer: 65%

Question: And the viability, T/C [9]?
Answer: 57.3%

Question: And the viability, T/C [10]?
Answer: 52.4%

Question: And the viability, T/C [11]?
Answer: 18.6%

Question: And the viability, T/C [12]?
Answer: 11.6%

Question: And the viability, T/C [13]?
Answer: 23.3%

Question: And the viability, T/C [14]?
Answer: 22%

Question: And the viability, T/C [15]?
Answer: 23.2%

Question: What about the viability, T/C [16] of the same compound?
Answer: 15.2%

Question: What about the viability, T/C [17] of the same compound?
Answer: 11.8%

Question: And the viability, T/C [18]?
Answer: 9.36%

Question: And the viability, T/C [19]?
Answer: 22.3%

Question: What about the viability, T/C [20] of the same compound?
Answer: 20.9%

Question: And the viability, T/C [21]?
Answer: 24.7%

Question: What about the viability, T/C [22] of the same compound?
Answer: 17.8%

Question: What about the viability, T/C [23] of the same compound?
Answer: 12.2%

Question: And the viability, T/C [24]?
Answer: 6.79%

Question: What about the viability, T/C [25] of the same compound?
Answer: 22.9%

Question: What about the viability, T/C [26] of the same compound?
Answer: 20.1%

Question: What about the viability, T/C [27] of the same compound?
Answer: 18.5%

Question: What about the viability, T/C [28] of the same compound?
Answer: 20%

Question: And the viability, T/C [29]?
Answer: 10.8%

Question: And the viability, T/C [30]?
Answer: 6.49%

Question: And the viability, T/C [31]?
Answer: 18.1%

Question: What about the viability, T/C [32] of the same compound?
Answer: 18.4%

Question: What about the viability, T/C [33] of the same compound?
Answer: 21%

Question: What about the viability, T/C [34] of the same compound?
Answer: 20.2%

Question: And the viability, T/C [35]?
Answer: 13.6%

Question: And the viability, T/C [36]?
Answer: 7.4%
